According to US10155021B2, “Antimicrobial 4-oxoquinolizines” (Emergent Product Development Gaithersburg Inc., priority 2011, dated 2018):
≈ marks a conversion by molar mass, not a printed value.

How the values were obtained:
E. cloacae 13047 = experiment: MIC, standard panel of Gram-positive and Gram-negative bacteria (CLSI); type: cell-based, Enterobacter cloacae; settings: Enterobacter cloacae, 13047; CAMHB; read-out: MIC E. cloacae 13047
[1] = tested on: S. aureus ATCC 43300 (MRSA, FQ-S); experiment: MIC, selected panel of Gram-positive and Gram-negative strains (Example 5); type: cell-based, Staphylococcus aureus; settings: Staphylococcus aureus; read-out: MIC S. aureus ATCC 43300 (MRSA, FQ-S)
S. aureus ATCC 25923 = experiment: as above; type: cell-based; settings: Staphylococcus aureus, ATCC25923; read-out: MIC S. aureus ATCC 25923
[2] = tested on: GN31 Acinetobacter baumannii; experiment: Pre-chequerboard MIC, broth microdilution (Example 6); type: cell-based; settings: antibiotic susceptible clinical isolate
Source text: (§1) A chequerboard technique was used to identify possible synergistic or antagonistic interactions between the 4-oxoquinolizines compounds, levofloxacin and polymyxin B. Levofloxacin was included as a control. […] Final dilutions were made in Mueller-Hinton broth, the specific test medium used for MIC determinations according to CLSI guidelines (CLSI. Methods for Dilution Antimicrobial Susceptibility Tests for Bacteria That Grow Aerobically; Approved Standard-Eighth Edition (2009). CLSI Document M07-A8. CLSI, Wayne, Pa. 19087-1898, USA.). The test medium used was a cation-adjusted Mueller-Hinton Broth II (Becton Dickinson UK Ltd., Oxford Science Park, Oxford, UK, OX4 4DQ).
(§2) The compounds 2, 33 and 35, as well as levofloxacin were tested in combination with polymyxin B on the following isolates: GN31 Acinetobacter baumannii—antibiotic susceptible clinical isolate, GN52 Acinetobacter baumannii—levofloxacin resistant clinical isolate, GN56 Acinetobacter baumannii—levofloxacin resistant clinical isolate, GN48 Klebsiella pneumoniae—NCTC 13443—NDM-1-metallo-R-lactamase and GN10 Pseudomonas aeruginosa—ATCC 27853—antibiotic susceptible reference isolate. All isolates are from the collection maintained at Quotient Bioresearch Ltd., Cambridge, UK.
(§3) The MIC values for the compounds and polymyxin B and levofloxacin were determined by broth microdilution following CLSI guidelines, and the MICs of agents in combination were determined as described by Pillai et.al (Pillai S K, Moellering R C Jr, Eliopoulis G M; Antimicrobial Combinations in Antibiotics in Laboratory Medicine 5th Edition (V. Lorian Ed) (2005) p 365-440). Initial MIC results were used to determine the microtiter plate patterns for the chequerboards. A suitable doubling dilution concentration range was selected such that the combination antibiotic range was at least two concentrations above and four concentrations below the MIC for each isolate. A fixed range of 0.008 to 8 mg/L was tested for polymyxin B except in the case of A. baumannii GN31 where a range of 0.004 to 4 mg/L was tested when in combination with the compounds 2, 33 and 35 as well as levofloxacin.

[3] = tested on: GN10 Pseudomonas aeruginosa; experiment: as above; type: cell-based; settings: ATCC 27853 / GN10, ATCC 27853, antibiotic susceptible
Source text: as §1, §2, §3

[4] = tested on: GN48 Klebsiella pneumoniae; experiment: as above; type: cell-based; settings: GN48 / NCTC 13443, NCTC 13443, NDM-1
Source text: as §1, §2, §3

[5] = tested on: GN56 Acinetobacter baumannii; experiment: as above; type: cell-based; settings: levofloxacin resistant clinical isolate
Source text: as §1, §2, §3

[6] = tested on: GN10 Pseudomonas aeruginosa; experiment: Chequerboard synergy with polymyxin B (FICI); type: cell-based; settings: combination with polymyxin B
Source text: as §1, §2, §3
(§4) From the raw data, fractional inhibitory concentration indices (FICI) were determined for the compounds of the invention and levofloxacin together with polymyxin B for each isolate as follows: FICI=FICX+FICY Where,
(§5) FICX=concentration of the combination antibiotic in a particular row÷MIC of the combination drug alone
(§6) FICY=MIC of polymyxin B in combination÷MIC of the polymyxin B alone
(§7) Additionally isobolograms were created to represent the same data visually. Here, the MIC of polymyxin B was plotted against every concentration of the combination antibiotic up to the MIC.

A. baumannii ATCC 19606 = experiment: MIC, selected panel of Gram-positive and Gram-negative strains (Example 5); type: cell-based, Acinetobacter baumannii; settings: Acinetobacter baumannii, ATCC19606; read-out: MIC A. baumannii ATCC 19606
E. faecalis 29212 = experiment: MIC, standard panel of Gram-positive and Gram-negative bacteria (CLSI); type: cell-based, Enterococcus faecalis; settings: Enterococcus faecalis, 29212; CAMHB; read-out: MIC E. faecalis 29212
[7] = tested on: GN52 Acinetobacter baumannii; experiment: Pre-chequerboard MIC, broth microdilution (Example 6); type: cell-based; settings: levofloxacin resistant clinical isolate
Source text: as §1, §2, §3

[8] = tested on: GN48 Klebsiella pneumoniae; experiment: Chequerboard synergy with polymyxin B (FICI); type: cell-based; settings: combination with polymyxin B
Source text: as §1, §2, §3, §4, §5, §6, §7

F. tularensis = experiment: microbe, parasite or virus in culture; type: cell-based; settings: Francisella tularensis, read-out: MIC F. tularensis
B. anthracis = experiment: microbe, parasite or virus in culture; type: cell-based; settings: Bacillus anthracis, read-out: MIC B. anthracis
B. pseudomallei = experiment: microbe, parasite or virus in culture; type: cell-based; settings: Burkholderia pseudomallei, read-out: MIC B. pseudomallei
B. abortus = experiment: microbe, parasite or virus in culture; type: cell-based; settings: Brucella abortus, read-out: MIC B. abortus

In the case of Cc1c(-c2ccc(N)cc2)c(F)cn2c(=O)c(C(=O)O)cc(C3CC3)c12 [Compound 7, 8-(4-amino-phenyl)-1-cyclopropyl-7-fluoro-9-methyl-4-oxo-quinolizine-3-carboxylic acid], the MIC (E. cloacae 13047) is reported as 1 µg/mL (≈ 2.84 µM).
Work on Cc1c(-c2ccc(CN)c(F)c2)ccn2c(=O)c(C(=O)O)cc(C3CC3)c12 [Compound 4, 8-(3-fluoro-4-aminomethyl-phenyl)-1-cyclopropyl-9-methyl-4-oxo-quinolizine-3-carboxylic acid] yielded an MIC [1] of 0.032 to 0.064 µg/mL (≈ 0.0873 to 0.175 µM) and an MIC (S. aureus ATCC 25923) of 0.064 µg/mL (≈ 0.175 µM).
With C[C@H]1COc2c(N3CCN(C)CC3)c(F)cc3c(=O)c(C(=O)O)cn1c23 [Levofloxacin, reference compound] the MIC [1] was 0.25 µg/mL (≈ 0.692 µM), the MIC [2] was 0.12 µg/mL and the MIC [3] was 1 µg/mL. For the same molecule, the MIC [4] was 64 µg/mL, the MIC [5] was 32 µg/mL and the “Interaction with polymyxin B, P. aeruginosa GN10” value [6] was “No interaction”. It also gave an MIC (A. baumannii ATCC 19606) of 0.5 µg/mL (≈ 1.38 µM).
Cc1c(-c2cc(F)c(N)cc2F)ccn2c(=O)c(C(=O)O)cc(C3CC3)c12 [Compound 2, 8-(3,6-difluoro-4-amino-phenyl)-1-cyclopropyl-9-methyl-4-oxo-quinolizine-3-carboxylic acid] showed an MIC (E. faecalis 29212) of under 0.008 µg/mL, an MIC [3] of 1 µg/mL and an MIC [7] of 8 µg/mL. The MIC [4] was 32 µg/mL and the Synergy [8] was “partial synergy”.
For Cc1c(-c2ccc(N)c(F)c2)ccn2c(=O)c(C(=O)O)cc(C3CC3)c12 [Compound 1, 8-(3-fluoro-4-amino-phenyl)-1-cyclopropyl-9-methyl-4-oxo-quinolizine-3-carboxylic acid], the MIC (F. tularensis) was under 0.03 µg/mL, the MIC (B. anthracis) was under 0.008 µg/mL and the MIC (B. pseudomallei) was 0.125 µg/mL (≈ 0.355 µM). For the same molecule, the MIC (B. abortus) was 0.125 µg/mL (≈ 0.355 µM).
